Data taken from US5972894A, “Peptides having potassium channel opener activity” (Cytran, Inc., priority 1997, dated 1999).
Residues, ends and D or L forms follow the SMILES beside them.

What was measured:
Isolated Rat Heart = assay: Inotropic function of normal isolated rat heart, Langendorff perfusion
Text: Rat heart specimens were obtained surgically from white random-bred male rats weighing approximately 250 g. The hearts were established in culture using retrograde heart perfusion according to the Langendorff method performed with a standard oxygenated (95% O2 and 5% CO2) Krebs-Henseleit solution through a glass aorta cannula. The retroperfusion pressure forces the aortic valves shut. In this way, the oxygenated solution passed only through the coronary vasculature of the heart such that both ventricles remain effectively empty. Perfusion conditions: An average constant perfusate flow rate of 15 to 25 ml/min was maintained with a constant perfusate pressure of 80 cm H2 O. Pressure Measurements: A latex balloon catheter connected with a pressure transducer ([…], Sweden) was inserted into the left ventricle of the heart to measure parameters of the inotropic function of the heart. The intraventricle pressure variation curve for the left ventricle was recorded with a polygraph. Experimental Protocol: GE and VT served as the test substances. After a 30-minute adaptation of the heart to the organ culture perfusion conditions, a set of basal (control) measurements was taken, as described in (i) through (v) below. […] See GOODMAN […] THE PHARMACOLOGICAL BASIS OF THERAPEUTICS 160 (Goodman et al., eds., 7th ed. 1985), incorporated herein by reference in its entirety for all purposes. Each dose of each respective test or reference substance was tested on four different rat hearts. The inotropic functions of each of the four rat hearts were evaluated by measuring: (i) the systolic pressure in the left ventricle ([…] diastolic pressure in the left ventricle ([…] evolving pressure (Pev. =[…]); (iv) the maximal rate of increase of left ventricle pressure (+dp/dtmax mm Hg/sec); and (v) the maximal rate of decrease of left ventricle pressure (-dp/dtmax mm Hg/sec). In addition, the heart rate (HR) of each heart was determined from the pressure variation recordings made of the left ventricle pressure.

mice = assay: Chloroform-induced arrhythmia; assay type: in vivo
Description: Each mouse in the study was treated by intraperitoneal injection of a dose of a test or control substance 15 minutes prior to the administration of a deep chloroform anesthesia. A test or control substance was then administered to each mouse. […] Novocainamide, a known antiarrhythmic agent, served as the positive control substance and was administered to mice in the positive control group at a dose of 240 mg/kg. Physiological saline served as the negative control substance and was administered to the mice in the negative control group.
Chloroform anesthesia was administered to each mouse by placing the mouse in an airtight glass container with cotton wool soaked in 20 ml of absolute chloroform. At the moment of respiratory arrest, the mouse was removed from the jar and electrocardiogram (ECG) monitoring (standard lead II) was initiated and continued for 30 seconds. […] An antiarrhythmic activity for a particular dose of a test substance is pharmaceutically acceptable if 30% of the animals in a test group show the latter test results (i.e., namely, no sign of ventricular paroxysmal rhythm disturbances and heart rate below 100 beats per 30 seconds within 30 seconds following the respiratory arrest).

[1] = 0.001 mg/kg i.p. 15 min before chloroform
[2] = 0.01 mg/kg i.p. 15 min before chloroform
[3] = 0.1 mg/kg i.p. 15 min before chloroform
[4] = 1.0 mg/kg i.p. 15 min before chloroform
[5] = 10.0 mg/kg i.p. 15 min before chloroform

In the case of NCC(=O)N[C@@H](CCC(=O)O)C(=O)O [GE, L-Glycyl-L-Glutamic acid] (H-Gly-Glu-OH), the “effect on inotropic function and heart rate of normal heart” value (Isolated Rat Heart; 10, 100, 1000 μg) is reported as “neither GE nor VT had a significant effect”, the “+dp/dtmax % of Basal Level” value (Isolated Rat Heart; dose 10 mg (mg = microgram)) is reported as 102% and the “+dp/dtmax Subst. Level” value (Isolated Rat Heart; dose 10 mg (mg = microgram)) is reported as 1750 mm Hg/sec. The “-dp/dtmax % of Basal Level” value (Isolated Rat Heart; dose 10 mg (mg = microgram)) was 94%, the “-dp/dtmax Subst. Level” value (Isolated Rat Heart; dose 10 mg (mg = microgram)) was 985 mm Hg/sec and the “HR % of Basal Level” value (Isolated Rat Heart; dose 10 mg (mg = microgram)) was 99%. The “HR abs, Subst. Level” value (Isolated Rat Heart; dose 10 mg (mg = microgram)) was 202 hb/min, the “Pdiast % of Basal Level” value (Isolated Rat Heart; dose 10 mg (mg = microgram)) was 95% and the “Pdiast abs, Subst. Level” value (Isolated Rat Heart; dose 10 mg (mg = microgram)) was 9 mm Hg. For the same compound, the “Pev % of Basal Level” value (Isolated Rat Heart; dose 10 mg (mg = microgram)) was 102%, the “Pev Subst. Level” value (Isolated Rat Heart; dose 10 mg (mg = microgram)) was 94 mm Hg and the “Psyst % of Basal Level” value (Isolated Rat Heart; dose 10 mg (mg = microgram)) was 102%. For the same compound, the “Psyst abs, Subst. Level” value (Isolated Rat Heart; dose 10 mg (mg = microgram)) was 104 mm Hg, the “+dp/dtmax % of Basal Level” value (Isolated Rat Heart; dose 100 mg (mg = microgram)) was 100% and the “+dp/dtmax Subst. Level” value (Isolated Rat Heart; dose 100 mg (mg = microgram)) was 1723 mm Hg/sec. For the same compound, the “-dp/dtmax % of Basal Level” value (Isolated Rat Heart; dose 100 mg (mg = microgram)) was 99%, the “-dp/dtmax Subst. Level” value (Isolated Rat Heart; dose 100 mg (mg = microgram)) was 1055 mm Hg/sec and the “HR % of Basal Level” value (Isolated Rat Heart; dose 100 mg (mg = microgram)) was 100%. For the same compound, the “HR abs, Subst. Level” value (Isolated Rat Heart; dose 100 mg (mg = microgram)) was 203 hb/min, the “Pdiast % of Basal Level” value (Isolated Rat Heart; dose 100 mg (mg = microgram)) was 100% and the “Pdiast abs, Subst. Level” value (Isolated Rat Heart; dose 100 mg (mg = microgram)) was 11 mm Hg. For the same compound, the “Pev % of Basal Level” value (Isolated Rat Heart; dose 100 mg (mg = microgram)) was 99%, the “Pev Subst. Level” value (Isolated Rat Heart; dose 100 mg (mg = microgram)) was 88 mm Hg and the “Psyst % of Basal Level” value (Isolated Rat Heart; dose 100 mg (mg = microgram)) was 99%. The “Psyst abs, Subst. Level” value (Isolated Rat Heart; dose 100 mg (mg = microgram)) was 99 mm Hg, the “+dp/dtmax % of Basal Level” value (Isolated Rat Heart; dose 1000 mg (mg = microgram)) was 94% and the “+dp/dtmax Subst. Level” value (Isolated Rat Heart; dose 1000 mg (mg = microgram)) was 1618 mm Hg/sec. For the same compound, the “-dp/dtmax % of Basal Level” value (Isolated Rat Heart; dose 1000 mg (mg = microgram)) was 96%, the “-dp/dtmax Subst. Level” value (Isolated Rat Heart; dose 1000 mg (mg = microgram)) was 980 mm Hg/sec and the “HR % of Basal Level” value (Isolated Rat Heart; dose 1000 mg (mg = microgram)) was 102%. For the same compound, the “HR abs, Subst. Level” value (Isolated Rat Heart; dose 1000 mg (mg = microgram)) was 198 hb/min, the “Pdiast % of Basal Level” value (Isolated Rat Heart; dose 1000 mg (mg = microgram)) was 100% and the “Pdiast abs, Subst. Level” value (Isolated Rat Heart; dose 1000 mg (mg = microgram)) was 10 mm Hg. The “Pev % of Basal Level” value (Isolated Rat Heart; dose 1000 mg (mg = microgram)) was 91%, the “Pev Subst. Level” value (Isolated Rat Heart; dose 1000 mg (mg = microgram)) was 85 mm Hg and the “Psyst % of Basal Level” value (Isolated Rat Heart; dose 1000 mg (mg = microgram)) was 92%. The “Psyst abs, Subst. Level” value (Isolated Rat Heart; dose 1000 mg (mg = microgram)) was 94 mm Hg, the “Antiarrhythmic Effect (no. animals) %” value (mice; [1]) was 11.1% and the “Antiarrhythmic Effect (no. animals) abs” value (mice; [1]) was 1. The Result (mice; [1]) was “No effect”, the “Antiarrhythmic Effect (no. animals) %” value (mice; [2]) was 44.4% and the “Antiarrhythmic Effect (no. animals) abs” value (mice; [2]) was 4. For the same compound, the Result (mice; [2]) was “Antiarrhythmic effect”, the “Antiarrhythmic Effect (no. animals) %” value (mice; [3]) was 44.4% and the “Antiarrhythmic Effect (no. animals) abs” value (mice; [3]) was 4. For the same compound, the Result (mice; [3]) was “Antiarrhythmic effect”, the “Antiarrhythmic Effect (no. animals) %” value (mice; [4]) was 55.6% and the “Antiarrhythmic Effect (no. animals) abs” value (mice; [4]) was 5. The Result (mice; [4]) was “Antiarrhythmic effect”, the “prevention of chloroform-induced ventricular arrhythmias” value (mice; 0.01, 0.1, 1.0, or 10.0 mg/kg) was “prevent the development of ventricular arrhythmias” and the “Antiarrhythmic Effect (no. animals) %” value (mice; [5]) was 66.7%. The “Antiarrhythmic Effect (no. animals) abs” value (mice; [5]) was 6 and the Result (mice; [5]) was “Antiarrhythmic effect”.
